Measurements from US20070161546A1, “Methods and compositions for treatment of cancer” (priority 2005, published 2007).

Tests used:
[1] = tested on: human monocyte-derived macrophages (MDMs); conditions: p38 MAPK inhibitor added to Z-100; cited from earlier work
[2] = tested on: Ehrlich ascites tumor cell; conditions: mice, 14 days after inoculation with cancer cells
Text: The injection is repeated over a period of several days. Fourteen days later after the initial inoculation with cancer cells, each of the treated mice are anesthetized.
The solid tumor growing in the abdominal section is carefully isolated from other organ tissues, cleaned using filter papers and weighed. For the test and the control group, the average weight of the cancerous tissue was tabulated and evaluated by the t-test.

| Compound | effect on Z-100-induced effects (repression of HIV-1 replication) [1] | anticancer effect (average weight of the cancerous tissue), agent alone [2] |
| --- | --- | --- |
| C[S+]([O-])c1ccc(-c2nc(-c3ccncc3)c(-c3ccc(F)cc3)[nH]2)cc1 (centres unmarked) [SB 203580] | alleviated |  |
| O=P1(N(CCCl)CCCl)NCCCO1 (centres unmarked) [cyclophosphamide, Cyclophosphamide] |  | anticancer effects of similar magnitude |
